According to US6090955A (priority 1994, dated 2000):

What was measured:
[1] = Tolerability in MaTu-bearing nude mice (toxic deaths, body weight change, hemotoxicity); format: in vivo, Ncr:nu/nu female mice; conditions: i.p., 12.5 mg/kg/inj., treatment d 10-13
Description: |Animals: Ncr:nu/nu female

P388 leukemia = conditions: implanted P388 leukemia; cited from earlier work
P388 = conditions: 12.5 mg/kg/4 days; free vs liposomal; cited from earlier work
P388 cells = conditions: in vitro, free vs liposome-encapsulated vs nanoparticular taxol; cited from earlier work
[2] = dilution of Cremophor/alcohol solutions with physiological salt solution; cited from earlier work
microtubuli = conditions: cited from earlier work
B16 melanoma = conditions: implanted B16 melanoma; cited from earlier work
human breast tumors = conditions: cited from earlier work
human glioblastoma = conditions: 12.5 mg/kg/4 days; cited from earlier work
[3] = cited from earlier work

| Molecule | BWC (%) d10-13 [1] [%] | Toxic deaths (d): day of death ([1]; 8 nude mice) [days] | Toxic deaths (d): number ([1]; 8 nude mice) | antineoplastic activity (P388 leukemia) | therapeutic effectiveness on P388 in vivo (P388) | growth inhibition of P388 cells (P388 cells) | stability in physiological salt solution [2] | depolymerization of microtubuli (microtubuli) | arrangement and bundling of microtubuli (microtubuli; during the whole of the cell cycle) | polymerization of microtubuli (microtubuli; from tubuli dimers) | antineoplastic activity (B16 melanoma) | antineoplastic activity (human breast tumors) | decrease in tumor growth (human glioblastoma) | toxicities observed in man [3] |
| --- | --- | --- | --- | --- | --- | --- | --- | --- | --- | --- | --- | --- | --- | --- |
| CC(=O)O[C@H]1C(=O)[C@@]2(C)[C@H]([C@H](OC(=O)c3ccccc3)[C@]3(O)C[C@H](OC(=O)[C@H](O)[C@@H](NC(=O)c4ccccc4)c4ccccc4)C(C)=C1C3(C)C)[C@]1(OC(C)=O)CO[C@@H]1C[C@@H]2O [Taxol] | -1 | 16 | 1 | clear antineoplastic activity | comparable in their therapeutic effectiveness | inhibited equally by all three forms of the drug | not more than 24 hours | stabilizes the microtubuli by inhibiting their depolymerization | abnormal arrangement and bundling of microtubuli | promotes the polymerization of microtubuli | clear antineoplastic activity | clear antineoplastic activity | significant decrease in tumor growth |  |
| polyethoxylated castor oil [Cremophor] |  |  |  |  |  |  |  |  |  |  |  |  |  | increased formation of chylomicrons |
